Series [1] has as its target T1, TOP2A (Homo sapiens, UniProt P11388). Briefly: Relaxation and K-DNA decatenation assays of candidates and T60 derivatives (SAR). The class given is biochemical. Also on record: full-length human TOP2A and TOP2B protein (TopoGEN and Inspiralis respectively); purchased TopoGEN TG1001 (human TOP2 assay kit). To be noted: compared with T60. On the procedure:
The human TOP2 assay kit (#TG1001, TopoGEN, Buena Vista, CO) and TOP2B (HTB205, Inspiralis, UK) were used for K-DNA decatenation assays. […] The reaction was incubated at 37C for 2 h after which 4 µl stop solution (5× buffer is 5% Sarkosyl, 0.125% bromophenol blue, 25% glycerol) was added. The reaction was resolved by electrophoresis on a 0.8% agarose gel at 60 V and stained with 0.5 µg/ml ethidium bromide for 15 min. DNA bands were visualized using a gel imager (Gel Doc™ EZ System) and quantified using the Image Studio™ Lite Quantification Software.
The human TOP2A and TOP2B were used to perform DNA relaxation assays. […] The reaction was incubated at 37C for 2 h and stopped by adding 2 µl of 10% SDS and 1 µl of 250 mM of EDTA, followed by the addition of 50 µg/ml of proteinase K at 45 C for 1 h. The reaction was then resolved by electrophoresis on a 1% agarose gel at 80 V and stained with 0.5 µg/ml ethidium bromide for 15 min. DNA bands were visualized using a gel imager (Gel Doc™ EZ System) and quantified using the Image Studio™ Lite Quantification Software.

The target of series [2] is T2, full-length human TOP2B (Homo sapiens, UniProt Q02880).
T2 construct: full-length human TOP2A and TOP2B protein (TopoGEN and Inspiralis respectively); purchased Inspiralis HTB205
T2 sequence (Q02880 whole entry): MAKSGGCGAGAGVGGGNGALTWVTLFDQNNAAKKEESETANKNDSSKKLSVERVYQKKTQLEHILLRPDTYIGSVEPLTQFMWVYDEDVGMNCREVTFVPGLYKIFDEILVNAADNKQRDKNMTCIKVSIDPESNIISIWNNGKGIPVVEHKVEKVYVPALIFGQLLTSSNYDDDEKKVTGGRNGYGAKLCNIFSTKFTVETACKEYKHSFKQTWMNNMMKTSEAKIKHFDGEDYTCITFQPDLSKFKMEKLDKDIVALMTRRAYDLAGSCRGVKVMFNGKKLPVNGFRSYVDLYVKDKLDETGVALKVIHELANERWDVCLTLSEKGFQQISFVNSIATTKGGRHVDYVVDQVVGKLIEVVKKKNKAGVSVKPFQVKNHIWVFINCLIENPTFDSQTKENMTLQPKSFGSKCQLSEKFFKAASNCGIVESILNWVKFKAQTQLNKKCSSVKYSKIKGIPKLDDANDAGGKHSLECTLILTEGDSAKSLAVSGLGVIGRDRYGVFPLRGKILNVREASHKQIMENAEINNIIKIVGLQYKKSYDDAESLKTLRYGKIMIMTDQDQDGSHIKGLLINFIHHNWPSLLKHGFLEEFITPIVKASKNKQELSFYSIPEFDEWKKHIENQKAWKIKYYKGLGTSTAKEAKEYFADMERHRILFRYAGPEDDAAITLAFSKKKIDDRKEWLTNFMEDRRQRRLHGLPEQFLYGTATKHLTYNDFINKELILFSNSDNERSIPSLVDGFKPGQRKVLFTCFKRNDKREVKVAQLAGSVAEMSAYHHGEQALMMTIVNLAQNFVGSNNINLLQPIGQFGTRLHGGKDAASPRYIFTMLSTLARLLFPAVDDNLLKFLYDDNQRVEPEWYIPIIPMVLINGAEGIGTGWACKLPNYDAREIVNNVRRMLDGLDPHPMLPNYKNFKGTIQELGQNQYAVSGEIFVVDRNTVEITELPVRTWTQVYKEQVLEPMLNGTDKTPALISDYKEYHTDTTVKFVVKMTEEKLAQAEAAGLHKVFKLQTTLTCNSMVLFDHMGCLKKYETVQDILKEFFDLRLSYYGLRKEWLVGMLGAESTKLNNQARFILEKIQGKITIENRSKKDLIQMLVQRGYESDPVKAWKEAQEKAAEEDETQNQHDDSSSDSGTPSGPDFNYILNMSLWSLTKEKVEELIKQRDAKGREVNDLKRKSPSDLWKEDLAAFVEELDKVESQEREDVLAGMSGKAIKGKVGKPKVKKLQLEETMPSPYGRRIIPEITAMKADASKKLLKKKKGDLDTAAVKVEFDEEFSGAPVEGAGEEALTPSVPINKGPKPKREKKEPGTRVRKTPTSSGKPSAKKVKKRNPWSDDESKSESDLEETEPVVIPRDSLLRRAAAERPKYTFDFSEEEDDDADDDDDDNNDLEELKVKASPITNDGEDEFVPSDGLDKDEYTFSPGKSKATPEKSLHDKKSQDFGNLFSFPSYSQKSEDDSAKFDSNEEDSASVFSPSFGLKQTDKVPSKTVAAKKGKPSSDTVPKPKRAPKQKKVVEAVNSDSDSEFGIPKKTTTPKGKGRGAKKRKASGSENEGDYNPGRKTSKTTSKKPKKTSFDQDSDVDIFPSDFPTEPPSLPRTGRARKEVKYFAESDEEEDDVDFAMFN
Briefly: EMSA with full-length protein. The class given is binding. Particulars: 200 µM; 2 µM protein, 300 nM 5ZRF oligo. On the procedure: (§1) EMSA followed the standard protocols as we and others described with minor modifications ([54]–[56]). The double-strand DNA oligo, 5ZRF (AGCCGAGCTGCAGCTCGGCT labeled by IRDye700) was purchased from IDT (Coralville, USA). Human TOP2 (431–1193), TOP2A (TopoGEN) or TOP2B (Inspiralis) proteins were incubated with 300 nM of 5ZRF oligo in a standard 20 µl EMSA reaction in a reaction buffer containing 20 mM HEPES-NaOH, pH 7.4, 2 mM DTT, 3 mM MgCl2, 0.05% NP-40, protease inhibitors, and 0.1 µg poly[dI:dC]. After incubation for 30 min at 37C, reactions were loaded onto 4% non-denatured polyacrylamide gel in 0.5× TBE buffer. The DNA oligo bands were visualized by using the Li-Cor Odyssey 9120 Infrared Imaging System.
Background: Mobility shift assays separate free from complexed probe on a gel.

Series [3] addresses T3, full-length human TOP2A (Homo sapiens, UniProt P11388).
T3 construct: full-length human TOP2A and TOP2B protein (TopoGEN and Inspiralis respectively); purchased TopoGEN TG1001 (human TOP2 assay kit)
Briefly: EMSA with full-length protein. The class given is binding. Particulars: 200 µM; 2 µM protein, 300 nM 5ZRF oligo. On the procedure:
as §1

Series [4] concerns the target T1, TOP2A. Briefly: DNA cleavage assay. The class given is biochemical. Particulars: co-treatment with 200 µM etoposide; 1, 100, 200 µM. The arrangement: full-length human TOP2A and TOP2B protein (TopoGEN and Inspiralis respectively); purchased TopoGEN TG1001 (human TOP2 assay kit). On the procedure: The reactions were incubated in 37C for 30 min and stopped by adding 2 µl of 10% SDS and 1 µl of 250 mM of EDTA, followed by the addition of 50 µg/ml of proteinase K at 45C for 30 min. The reaction was then resolved by electrophoresis on a 1% agarose gel containing […] ethidium bromide in TAE buffer at 60 V. DNA bands were visualized using a gel imager (Gel Doc™ EZ System) and quantified by using the Image Studio™ Lite Quantification Software.

The subject of series [5] is phospho-H2AXγ expression. Briefly: Phospho-H2AXγ expression in multiple cancer cell models. The class given is cell-based. To be noted: 5 µM, 4 hours. On the procedure:
(§2) Cell proliferation rates were measured by using the CellTitre 96 AqueousOne kit (Promega) and bromodeoxyuridine (BrdU) assay kit (Millipore) according to the manufacturer’s protocol as we have described ([51]). Cytotoxicity was evaluated by using the commercial kit (CAT# 8078, ThermoFisher). Culture media was collected and used to measure lactate dehydrogenase (LDH) levels by a colorimetric method following the manufacture’s protocol (ThermoFisher). Cell cycling was assessed by using BrdU incorporation into S-phase DNA by using the APC BrdU flow kit (BD Pharmingen; Franklin Lakes, New Jersey) according to the manufacturer’s protocol. 1 mM of BrdU was added to cells and incubated for 6 h. Cells were incubated with anti-BrdU antibody and stained with 7-AAD before processing the cells for flow cytometry ([52]). Immunoblotting assays followed the standard protocol as we have reported ([51]–[53]).

The test system of series [6] is AR target genes such as PSA and FKBP5. Briefly: Real-time PCR of AR target genes. The format is cell-based. Particulars: LNCaP and LNCaP95 cells, 0-20 µM, −/+10nM DHT. A general note: In qPCR the cycle at which signal appears reflects the starting amount.
Series [7] deals with AR proteins in LNCaP cells. Briefly: AR nuclear localization, cytoplasmic/nuclear western blotting. The class given is cell-based. To be noted: 20 µM, 24 h. (In general: A western blot detects proteins with antibodies after separation by electrophoresis.)
Series [8] deals with salmon sperm DNA. Briefly: Ethidium bromide displacement assay. The class given is binding. To be noted: increasing doses; 100 µg/ml DNA, 2 µg/ml ethidium bromide. On the procedure: Ethidium bromide displacement assay was performed as previously described ([49], [50]) using Amsacrine (mAMSA) as a positive control. In a 20 µl reaction, compounds were mixed with 100 µg/ml of salmon sperm DNA and 2 µg/ml of ethidium bromide in a fluorescence buffer containing 10 mM HEPES, pH 7.9, 100 mM KCl, 5 mM MgCl2, 0.1 mM EDTA, pH 8.0. Triplicate reactions were subjected to fluorescence emission of 590 nm and excitation of 535 nm. Signals were detected by using the Multimode Microplate Reader, Infinite® F500.

The subject of series [9] is K562, U937, NCI-H82, and NCCIT cancer cells. Briefly: Co-treatment with paclitaxel or camptothecin, MTS assay. The class given is cell-based. Particulars: 5-20 µM T60 co-treatment. On the procedure:
as §2

Series [10] relates to HeLa cells. Briefly: BrdU incorporation assay. The format is cell-based. To be noted: 20 µM, 48 h. On the procedure:
as §2

The test system of series [11] is HeLa cells. Briefly: LDH cytotoxicity assay. The format is cell-based. Particulars: 0–20 µM, 48 h. On the procedure:
as §2

Series [12] concerns K562 cells. Briefly: Cell proliferation, MTS assay. The class given is cell-based. Particulars: 0-20 µM, 0-72 h. On the procedure:
as §2

T1 sequence (P11388 whole entry): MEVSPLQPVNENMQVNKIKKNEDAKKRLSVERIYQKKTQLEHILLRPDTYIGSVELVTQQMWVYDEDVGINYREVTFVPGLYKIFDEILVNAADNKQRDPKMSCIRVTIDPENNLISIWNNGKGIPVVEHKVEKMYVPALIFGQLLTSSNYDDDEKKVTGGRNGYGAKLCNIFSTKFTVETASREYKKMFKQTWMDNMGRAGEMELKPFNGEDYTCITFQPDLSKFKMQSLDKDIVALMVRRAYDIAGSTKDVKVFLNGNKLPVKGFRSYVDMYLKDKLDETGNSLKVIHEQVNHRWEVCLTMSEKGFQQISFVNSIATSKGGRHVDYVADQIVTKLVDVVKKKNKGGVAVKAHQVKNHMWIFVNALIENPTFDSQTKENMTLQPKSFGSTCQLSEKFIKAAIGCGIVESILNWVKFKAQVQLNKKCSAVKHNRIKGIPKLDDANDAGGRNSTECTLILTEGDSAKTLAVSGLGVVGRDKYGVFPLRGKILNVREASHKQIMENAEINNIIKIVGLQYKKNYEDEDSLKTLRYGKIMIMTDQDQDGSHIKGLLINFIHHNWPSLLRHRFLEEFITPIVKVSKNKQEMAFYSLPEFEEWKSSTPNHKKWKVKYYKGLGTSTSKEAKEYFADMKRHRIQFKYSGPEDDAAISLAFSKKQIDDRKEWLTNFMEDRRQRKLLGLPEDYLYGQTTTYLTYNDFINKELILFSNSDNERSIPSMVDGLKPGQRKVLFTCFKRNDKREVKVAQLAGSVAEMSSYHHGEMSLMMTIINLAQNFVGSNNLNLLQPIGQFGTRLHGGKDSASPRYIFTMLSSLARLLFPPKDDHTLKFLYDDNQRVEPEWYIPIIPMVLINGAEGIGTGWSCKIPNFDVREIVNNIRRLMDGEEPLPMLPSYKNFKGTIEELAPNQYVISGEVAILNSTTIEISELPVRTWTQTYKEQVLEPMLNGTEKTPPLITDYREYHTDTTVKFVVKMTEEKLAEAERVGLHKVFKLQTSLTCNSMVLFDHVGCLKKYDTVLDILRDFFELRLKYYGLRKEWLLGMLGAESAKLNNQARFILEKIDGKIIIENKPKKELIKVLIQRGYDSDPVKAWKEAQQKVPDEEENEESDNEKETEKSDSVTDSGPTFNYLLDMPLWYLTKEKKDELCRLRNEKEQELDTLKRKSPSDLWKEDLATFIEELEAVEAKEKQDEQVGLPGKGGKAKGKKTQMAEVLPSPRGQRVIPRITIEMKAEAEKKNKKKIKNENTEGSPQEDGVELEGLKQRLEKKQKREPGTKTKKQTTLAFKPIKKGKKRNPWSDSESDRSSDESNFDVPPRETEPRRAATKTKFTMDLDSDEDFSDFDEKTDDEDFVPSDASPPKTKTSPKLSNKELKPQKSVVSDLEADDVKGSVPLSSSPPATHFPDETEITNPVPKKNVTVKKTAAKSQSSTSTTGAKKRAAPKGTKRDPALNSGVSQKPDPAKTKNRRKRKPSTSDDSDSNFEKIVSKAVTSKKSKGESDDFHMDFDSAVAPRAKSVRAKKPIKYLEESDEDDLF
T3 sequence (P11388 whole entry): as above

`O=C(Nc1ccc(Nc2ccccc2)cc1)c1ccc[nH]c1=S` [T60]: the “Activity on TOP2” value in [1] is listed as “less active”. The “Interruption of mobility retarded band, full-length TOP2B” value in series [2] is reported as “interrupted”. For the same molecule, the “Interruption of mobility retarded band, full-length TOP2A” value in [3] was “interrupted”. Further, the “Prevention of etoposide-induced DNA cleavage, TOP2A” value in series [4] is “prevented”. Besides, the “DNA damage (phospho-H2AXγ expression) in all cell models” value in series [5] is “not accompanied by DNA damage”. Besides, in [6], the “mRNA expression of AR target genes (PSA, FKBP5)” value is reported as “inhibited mRNA expression of AR target genes”. Moreover, the “Nuclear localization of AR proteins, LNCaP” value in series [7] is recorded as “reduced nuclear localization”. For the same molecule, the “Fluorescence of ethidium bromide/DNA complex (DNA intercalation)” value in series [8] is listed as “does not intercalate with DNA”. Besides, the “Effect on effectiveness of paclitaxel and camptothecin in suppressing cancer cell growth” value in series [9] is “enhanced the effectiveness of these drugs”. Also, the “DNA replication (BrdU incorporation)” value in [10] is listed as “reduced DNA replication”. For the same molecule, the “Cytotoxicity (LDH release)” value in series [11] is reported as “low cytotoxicity”. In addition, the K562 cell proliferation result in series [12] was “inhibited K562 cell proliferation in a dose- and time-dependent manner”.
